Square brackets hold non-standard residues; d marks the D form. Peptide text beside a SMILES is read from it. Ala(1H-tetrazol-5-yl) = N[C@@H](Cc1nnn[nH]1)C(=O)O
Test: Peptide stability tests 2 and 3: Tris buffer pH 7.0, stored at 60° C., HPLC conditions 2
Type: physicochemical
Conditions: Tris buffer pH 7.0, 60° C.; for survival rate after correction for water, 60° C., 1-week storage / survival rate after correction for water, 60° C., 2-week storage: 100 μM peptide; for survival rate after correction for water, 60° C., 2-week storage: 2 weeks
Method in brief: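 Peptides at 100 μM in Tris buffer pH 7.0, held 1 or 2 weeks at 60° C. An unstored sample served as standard. Water-corrected survival rate by HPLC on C18 at 40° C., 0.1% formic acid water/acetonitrile gradient, 220 nm detection.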

Row | stability in aqueous solution, in words | Compound | survival rate after correction for water, 60° C., 1-week storage | survival rate after correction for water, 60° C., 2-week storage
1 |  | CC[C@H](C)[C@H](NC(=O)CNC(=O)[C@H](Cc1nnn[nH]1)NC(=O)[C@H](CO)NC(=O)[C@H](Cc1c[nH]cn1)NC(C)=O)C(=O)N[C@@H](Cc1ccccc1)C(=O)N[C@H](C(=O)N[C@@H](Cc1nnn[nH]1)C(=O)N[C@@H](C)C(=O)N[C@@H](Cc1ccc(O)cc1)C(=O)N[C@@H](CO)C(=O)N[C@@H](CCCNC(=N)N)C(=O)N[C@@H](Cc1ccc(O)cc1)C(=O)N[C@@H](CCCNC(=N)N)C(=O)N[C@@H](CCCCN)C(=O)N[C@@H](CCC(N)=O)C(=O)N[C@@H](CC(C)C)C(=O)N[C@@H](C)C(=O)N[C@H](C(=O)N[C@@H](CCCCN)C(=O)N[C@@H](CCCCN)C(=O)N[C@@H](Cc1ccc(O)cc1)C(=O)N[C@@H](CC(C)C)C(=O)N[C@@H](C)C(=O)N[C@@H](C)C(=O)N[C@H](C(=O)N[C@@H](CC(C)C)C(N)=O)C(C)C)C(C)C)[C@@H](C)O [Peptide 15] (Ac-HS[Ala(1H-tetrazol-5-yl)]GIFT[Ala(1H-tetrazol-5-yl)]AYSRYRKQLAVKKYLAAVL-NH2) | 97.3% | 94.9%
2 |  | CC[C@H](C)[C@H](NC(=O)CNC(=O)[C@H](Cc1nnn[nH]1)NC(=O)[C@H](CO)NC(=O)[C@H](Cc1c[nH]cn1)NC(C)=O)C(=O)N[C@@H](Cc1ccccc1)C(=O)N[C@H](C(=O)N[C@@H](Cc1nnn[nH]1)C(=O)N[C@@H](CO)C(=O)N[C@@H](Cc1ccc(O)cc1)C(=O)N[C@@H](CO)C(=O)N[C@@H](CCCNC(=N)N)C(=O)N[C@@H](Cc1ccc(O)cc1)C(=O)N[C@@H](CCCNC(=N)N)C(=O)N[C@@H](CCCCN)C(=O)N[C@@H](CCC(N)=O)C(=O)N[C@@H](CC(C)C)C(=O)N[C@@H](C)C(=O)N[C@H](C(=O)N[C@@H](CCCCN)C(=O)N[C@@H](CCCCN)C(=O)N[C@@H](Cc1ccc(O)cc1)C(=O)N[C@@H](CC(C)C)C(=O)N[C@@H](C)C(=O)N[C@@H](C)C(=O)N[C@H](C(=O)N[C@@H](C)C(N)=O)C(C)C)C(C)C)[C@@H](C)O [Peptide 20] (Ac-HS[Ala(1H-tetrazol-5-yl)]GIFT[Ala(1H-tetrazol-5-yl)]SYSRYRKQLAVKKYLAAVA-NH2) | 93.9% | 91.8%
3 | further increased stability | CC[C@H](C)[C@H](NC(=O)CNC(=O)[C@H](Cc1nnn[nH]1)NC(=O)[C@H](CO)NC(=O)[C@H](Cc1c[nH]cn1)NC(C)=O)C(=O)N[C@@H](Cc1ccccc1)C(=O)N[C@H](C(=O)N[C@@H](Cc1nnn[nH]1)C(=O)N[C@@H](CO)C(=O)N[C@@H](Cc1ccc(O)cc1)C(=O)N[C@@H](CO)C(=O)N[C@@H](CCCNC(=N)N)C(=O)N[C@@H](Cc1ccc(O)cc1)C(=O)N[C@@H](CCCNC(=N)N)C(=O)N[C@@H](CCCCN)C(=O)N[C@@H](CCC(N)=O)C(=O)N[C@@H](CC(C)C)C(=O)N[C@@H](C)C(=O)N[C@H](C(=O)N[C@@H](CCCCN)C(=O)N[C@@H](CCCCN)C(=O)N[C@@H](Cc1ccc(O)cc1)C(=O)N[C@@H](CC(C)C)C(=O)N[C@@H](C)C(=O)N[C@@H](C)C(=O)N[C@H](C(=O)N[C@@H](CC(C)C)C(N)=O)C(C)C)C(C)C)[C@@H](C)O [Peptide 9] (Ac-HS[Ala(1H-tetrazol-5-yl)]GIFT[Ala(1H-tetrazol-5-yl)]SYSRYRKQLAVKKYLAAVL-NH2) | 98.4% | 92.8%

— patent publication US12304932B2, “PACAP stabilized peptide” (SENJU PHARMACEUTICAL CO., LTD., priority 2017, dated 2025)
